Data as given in US9149038B2, “4-amino-6-(heterocyclic)picolinates and 6-amino-2-(heterocyclic)pyrimidine-4-carboxylates and their use as herbicides” (Dow AgroSciences LLC, priority 2013, dated 2015).
Read-outs that look alike come from different tables or passages of the source.

Test system: Wheat and Barley and weed species
Experiment: Post-Emergent Test III: postemergent herbicidal activity in wheat and barley, visual rating after 21 d and probit GR20/GR50/GR80/GR90 (Tables 9-13)
Assay type: in vivo
Conditions: for pest or weed control at 17.5 g/ha / pest or weed control at 35 g/ha / pest or weed control at 70 g/ha: post-emergence, 504 h
In short: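 Greenhouse plants (~18/17 °C, 14 h photoperiod) at second–third true leaf stage sprayed at 187 L/ha with a high rate and ½× to 1/16× serial dilutions. Visual injury 0–100% versus solvent-blank controls scored at 21 d; GR20, GR50, GR80 and GR90 derived by probit analysis across rates.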

Question: How did the “GR50 ALOMY” value (ALOMY black-grass (Alopecurus myosuroides), growth reduction of 50%, probit analysis) turn out when Nc1c(F)c(-c2ccc3c(c2F)OC(F)(F)O3)nc(C(=O)O)c1Cl [Compound 11] was run?
Answer: 41 g ai/ha

Question: What about the “GR80 ALOMY” value (ALOMY black-grass (Alopecurus myosuroides), growth reduction of 80%, probit analysis) of the same compound?
Answer: >70 g ai/ha

Question: And the “GR90 ALOMY” value (ALOMY black-grass (Alopecurus myosuroides), growth reduction of 90%, probit analysis)?
Answer: >70 g ai/ha

Question: What about the “GR50 APESV” value (APESV bentgrass (Apera spica-venti), growth reduction of 50%, probit analysis) of the same compound?
Answer: 25 g ai/ha

Question: What about the “GR80 APESV” value (APESV bentgrass (Apera spica-venti), growth reduction of 80%, probit analysis) of the same compound?
Answer: 52 g ai/ha

Question: And the “GR90 APESV” value (APESV bentgrass (Apera spica-venti), growth reduction of 90%, probit analysis)?
Answer: >70 g ai/ha

Question: What about the “GR20 HORVS” value (HORVS barley, spring (crop), growth reduction of 20%, probit analysis) of the same compound?
Answer: 3 g ai/ha

Question: What about the pest or weed control at 17.5 g/ha (Hordeum vulgare, HORVS barley, spring (crop), 17.5 g ai/ha, read-out: Visual Growth Reduction (%) 21 Days After Application HORVS) of the same compound?
Answer: 60 to 74%

Question: What about the pest or weed control at 35 g/ha (Hordeum vulgare, HORVS barley, spring (crop), 35 g ai/ha, read-out: Visual Growth Reduction (%) 21 Days After Application HORVS) of the same compound?
Answer: 60 to 74%

Question: What about the pest or weed control at 70 g/ha (Hordeum vulgare, HORVS barley, spring (crop), 70 g ai/ha, read-out: Visual Growth Reduction (%) 21 Days After Application HORVS) of the same compound?
Answer: 85 to 94%

Question: What about the “GR50 LOLSS” value (LOLSS ryegrass, growth reduction of 50%, probit analysis) of the same compound?
Answer: 31 g ai/ha

Question: What about the “GR80 LOLSS” value (LOLSS ryegrass, growth reduction of 80%, probit analysis) of the same compound?
Answer: 62 g ai/ha

Question: What about the “GR90 LOLSS” value (LOLSS ryegrass, growth reduction of 90%, probit analysis) of the same compound?
Answer: >70 g ai/ha

Question: What about the “Visual Growth Reduction (%) 21 Days After Application MATCH” value (MATCH wild chamomile (Matricaria recutita L.), 17.5 g ai/ha) of the same compound?
Answer: G (0-29)

Question: What about the “Visual Growth Reduction (%) 21 Days After Application MATCH” value (MATCH wild chamomile (Matricaria recutita L.), 35 g ai/ha) of the same compound?
Answer: F (30-44)

Question: And the “Visual Growth Reduction (%) 21 Days After Application MATCH” value (MATCH wild chamomile (Matricaria recutita L.), 70 g ai/ha)?
Answer: E (45-59)

Question: What about the “GR50 MATCH” value (MATCH wild chamomile (Matricaria recutita L.), growth reduction of 50%, probit analysis) of the same compound?
Answer: 65 g ai/ha

Question: What about the “GR80 MATCH” value (MATCH wild chamomile (Matricaria recutita L.), growth reduction of 80%, probit analysis) of the same compound?
Answer: >70 g ai/ha

Question: What about the “GR90 MATCH” value (MATCH wild chamomile (Matricaria recutita L.), growth reduction of 90%, probit analysis) of the same compound?
Answer: >70 g ai/ha

Question: What about the “GR50 SETVI” value (SETVI green foxtail (Setaria viridis), growth reduction of 50%, probit analysis) of the same compound?
Answer: 18 g ai/ha

Question: And the “GR80 SETVI” value (SETVI green foxtail (Setaria viridis), growth reduction of 80%, probit analysis)?
Answer: 37 g ai/ha

Question: And the “GR90 SETVI” value (SETVI green foxtail (Setaria viridis), growth reduction of 90%, probit analysis)?
Answer: 53 g ai/ha

Question: What about the “GR20 TRZAS” value (TRZAS wheat, spring (crop), growth reduction of 20%, probit analysis) of the same compound?
Answer: 0.12 g ai/ha

Question: And the pest or weed control at 17.5 g/ha (Triticum aestivum, TRZAS wheat, spring (crop), 17.5 g ai/ha, read-out: Visual Growth Reduction (%) 21 Days After Application TRZAS)?
Answer: 75 to 84%

Question: And the pest or weed control at 35 g/ha (Triticum aestivum, TRZAS wheat, spring (crop), 35 g ai/ha, read-out: Visual Growth Reduction (%) 21 Days After Application TRZAS)?
Answer: 85 to 94%

Question: What about the pest or weed control at 70 g/ha (Triticum aestivum, TRZAS wheat, spring (crop), 70 g ai/ha, read-out: Visual Growth Reduction (%) 21 Days After Application TRZAS) of the same compound?
Answer: 85 to 94%

Question: And the “Visual Growth Reduction (%) 21 Days After Application VERPE” value (VERPE bird's-eye speedwell (veronica persica), 17.5 g ai/ha)?
Answer: E (45-59)

Question: And the “Visual Growth Reduction (%) 21 Days After Application VERPE” value (VERPE bird's-eye speedwell (veronica persica), 35 g ai/ha)?
Answer: D (60-74)

Question: And the “Visual Growth Reduction (%) 21 Days After Application VERPE” value (VERPE bird's-eye speedwell (veronica persica), 70 g ai/ha)?
Answer: B (85-94)

Question: What about the “GR50 VERPE” value (VERPE bird's-eye speedwell (veronica persica), growth reduction of 50%, probit analysis) of the same compound?
Answer: 17 g ai/ha

Question: What about the “GR80 VERPE” value (VERPE bird's-eye speedwell (veronica persica), growth reduction of 80%, probit analysis) of the same compound?
Answer: 41 g ai/ha

Question: And the “GR90 VERPE” value (VERPE bird's-eye speedwell (veronica persica), growth reduction of 90%, probit analysis)?
Answer: 65 g ai/ha

Question: And the pest or weed control at 17.5 g/ha (ALOMY black-grass (Alopecurus myosuroides), 17.5 g ai/ha, read-out: Visual Growth Reduction (%) 21 Days After Application ALOMY)?
Answer: 30 to 44%

Question: What about the pest or weed control at 35 g/ha (ALOMY black-grass (Alopecurus myosuroides), 35 g ai/ha, read-out: Visual Growth Reduction (%) 21 Days After Application ALOMY) of the same compound?
Answer: 45 to 59%

Question: And the pest or weed control at 70 g/ha (ALOMY black-grass (Alopecurus myosuroides), 70 g ai/ha, read-out: Visual Growth Reduction (%) 21 Days After Application ALOMY)?
Answer: 60 to 74%

Question: What about the pest or weed control at 17.5 g/ha (APESV bentgrass (Apera spica-venti), 17.5 g ai/ha, read-out: Visual Growth Reduction (%) 21 Days After Application APESV) of the same compound?
Answer: 30 to 44%

Question: And the pest or weed control at 35 g/ha (APESV bentgrass (Apera spica-venti), 35 g ai/ha, read-out: Visual Growth Reduction (%) 21 Days After Application APESV)?
Answer: 60 to 74%

Question: What about the pest or weed control at 70 g/ha (APESV bentgrass (Apera spica-venti), 70 g ai/ha, read-out: Visual Growth Reduction (%) 21 Days After Application APESV) of the same compound?
Answer: 85 to 94%

Question: And the pest or weed control at 17.5 g/ha (LOLSS ryegrass, 17.5 g ai/ha, read-out: Visual Growth Reduction (%) 21 Days After Application LOLSS)?
Answer: 45 to 59%

Question: And the pest or weed control at 35 g/ha (LOLSS ryegrass, 35 g ai/ha, read-out: Visual Growth Reduction (%) 21 Days After Application LOLSS)?
Answer: 60 to 74%

Question: And the pest or weed control at 70 g/ha (LOLSS ryegrass, 70 g ai/ha, read-out: Visual Growth Reduction (%) 21 Days After Application LOLSS)?
Answer: 75 to 84%

Question: What about the pest or weed control at 17.5 g/ha (SETVI green foxtail (Setaria viridis), 17.5 g ai/ha, read-out: Visual Growth Reduction (%) 21 Days After Application SETVI) of the same compound?
Answer: 45 to 59%

Question: And the pest or weed control at 35 g/ha (SETVI green foxtail (Setaria viridis), 35 g ai/ha, read-out: Visual Growth Reduction (%) 21 Days After Application SETVI)?
Answer: 75 to 84%

Question: And the pest or weed control at 70 g/ha (SETVI green foxtail (Setaria viridis), 70 g ai/ha, read-out: Visual Growth Reduction (%) 21 Days After Application SETVI)?
Answer: 85 to 94%
